Reference: patent US20260183295A1, “METHODS AND COMPOSITIONS FOR TREATING CANCER” (Onconova Therapeutics, Inc., priority 2022, published 2026)

Columns and labels:
[1] = biological target: T1, AAK1 (Homo sapiens, UniProt Q2M2I8); experiment: CETSA-MS, MDA-MB-231 cell lysates and intact cells; type: cell-based; settings: present in both MDA-MB-231 cell lysates and intact cells
T1 construct: endogenous in cells; host or cells: MDA-MB-231
Description: (§1) Following treatment, cell lysates were thermally treated in a thermal gradient profile across a temperature range. Following the thermal shift, cell lysates were spun by centrifuge to pellet aggregate protein and the supernatant withdrawn. The supernatant was then denatured in buffer and heated to denature, reduce, and alkylate the supernatant proteins. Following heating and cooling to room temperature, cold acetone was added to the supernatant samples and proteins precipitated.
(§2) TNBC MDA-MB-231 cells were grown at 37° C. in 5% CO2 and suspended in warm media and split into 4 equal volumes. […] Cells were incubated and then pelleted. Following pelleting, the cells were washed, resuspended, and heated in a thermal gradient. Following heating, the samples were flash frozen and lysed in lysis buffer, agitated by vortex, and sonicated prior to centrifugation. The supernatant was collected and denaturation buffer added. Cold acetone was then added to the cell samples, and protein collected by centrifugation. Pellets were then washed twice with cold acetone and the washed pellets prior to labeling.
(§3) The intact cell protein samples and lysate protein samples were then digested and labeled for mass spectrometry analysis according to the manufacturer's recommended protocols. Digested and labeled protein samples were analyzed by mass spectrometry proteomic analysis and the resulting protein targets were analyzed and plotted.

[2] = biological target: T2, BMP2K (Homo sapiens, UniProt Q9NSY1); experiment: CETSA-MS, MDA-MB-231 cell lysates and intact cells; type: cell-based; settings: present in both MDA-MB-231 cell lysates and intact cells
T2 construct: endogenous in cells; host or cells: MDA-MB-231
Description: as §1, §2, §3

[3] = biological target: T3, CHEK1 (Homo sapiens, UniProt O14757); experiment: CETSA-MS, MDA-MB-231 cell lysates and intact cells; type: cell-based; settings: present in both MDA-MB-231 cell lysates and intact cells
T3 construct: endogenous in cells; host or cells: MDA-MB-231
T3 sequence (O14757 1-476): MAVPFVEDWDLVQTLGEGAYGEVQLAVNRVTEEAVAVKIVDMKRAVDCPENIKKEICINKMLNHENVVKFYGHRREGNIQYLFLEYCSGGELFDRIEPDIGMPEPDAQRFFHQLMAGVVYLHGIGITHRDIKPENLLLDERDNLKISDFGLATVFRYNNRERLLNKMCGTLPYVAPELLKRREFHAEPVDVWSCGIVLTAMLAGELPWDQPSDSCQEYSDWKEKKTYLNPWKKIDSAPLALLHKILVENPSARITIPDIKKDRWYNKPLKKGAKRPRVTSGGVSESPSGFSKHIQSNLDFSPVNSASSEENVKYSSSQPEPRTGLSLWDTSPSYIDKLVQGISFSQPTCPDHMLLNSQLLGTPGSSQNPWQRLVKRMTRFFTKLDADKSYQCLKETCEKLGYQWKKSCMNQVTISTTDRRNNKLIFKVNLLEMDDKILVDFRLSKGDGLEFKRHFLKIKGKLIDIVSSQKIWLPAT
Description: as §1, §2, §3

[4] = biological target: T4, GSK3A (Homo sapiens, UniProt P49840); experiment: CETSA-MS, MDA-MB-231 cell lysates and intact cells; type: cell-based; settings: present in both MDA-MB-231 cell lysates and intact cells
T4 construct: endogenous in cells; host or cells: MDA-MB-231
Description: as §1, §2, §3

[5] = biological target: T5, GSK3B (Homo sapiens, UniProt P49841); experiment: CETSA-MS, MDA-MB-231 cell lysates and intact cells; type: cell-based; settings: present in both MDA-MB-231 cell lysates and intact cells
T5 construct: endogenous in cells; host or cells: MDA-MB-231
Description: as §1, §2, §3

[6] = system: Hs578t cells; experiment: Cancer cell growth, 48 hours; type: cell-based; settings: 5 μM or 10 μM, compared to Comparator 1 (FIG. 1)
Description: At the end of 48 hours, growth of cells was measured using standard techniques.

[7] = system: Caspase 3; experiment: Western blot, MDA-MB-231 cells, 24 hours; type: cell-based; settings: 2.5, 5, 10 μM, versus Comparator 1, 2 and 4
[8] = system: PyMT cells; experiment: Senescence-associated β-galactosidase staining, 48 hours; type: cell-based, mouse; settings: compared to DMSO
Description: Following 48 hours of treatment, cells were stained for the senescence marker β-galactosidase.

[9] = system: CXCL10; experiment: qPCR of T-cell recruiting chemokine mRNA, PyMT cells; type: cell-based, mouse
[10] = system: B2M; experiment: qPCR of mRNA expression, PyMT cells; type: cell-based, mouse; settings: 24 and 48 hours
[11] = biological target: T6, NUAK1 (Homo sapiens, UniProt O60285); experiment: NUAK1 In Vitro Kd, kinase binding assay (qPCR); settings: second In Vitro column of Table 8
T6 sequence (O60285 1-661): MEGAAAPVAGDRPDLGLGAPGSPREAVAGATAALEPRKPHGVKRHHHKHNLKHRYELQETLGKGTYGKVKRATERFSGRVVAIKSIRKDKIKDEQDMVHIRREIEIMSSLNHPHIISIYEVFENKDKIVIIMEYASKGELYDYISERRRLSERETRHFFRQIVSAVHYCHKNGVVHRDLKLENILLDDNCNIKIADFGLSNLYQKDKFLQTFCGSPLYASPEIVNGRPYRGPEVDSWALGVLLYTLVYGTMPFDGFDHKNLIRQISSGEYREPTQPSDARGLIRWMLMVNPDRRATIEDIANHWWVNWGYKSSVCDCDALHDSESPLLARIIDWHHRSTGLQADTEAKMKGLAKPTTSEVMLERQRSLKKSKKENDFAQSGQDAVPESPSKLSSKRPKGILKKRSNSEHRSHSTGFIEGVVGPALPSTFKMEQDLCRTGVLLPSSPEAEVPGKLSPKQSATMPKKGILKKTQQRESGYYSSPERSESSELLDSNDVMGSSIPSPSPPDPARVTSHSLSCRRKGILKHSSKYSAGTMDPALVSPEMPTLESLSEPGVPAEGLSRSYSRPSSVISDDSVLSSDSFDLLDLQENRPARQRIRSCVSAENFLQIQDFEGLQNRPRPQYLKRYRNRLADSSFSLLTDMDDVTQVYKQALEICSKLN
Description: Kinase-tagged T7 phage strains were prepared in an E. coli host derived from the BL21 strain. E. coli were grown to log-phase and infected with T7 phage and incubated with shaking at 32° C. until lysis. The lysates were spun by centrifuge and filtered to remove cell debris. The remaining kinases were produced in HEK-293 cells and subsequently tagged with DNA for qPCR detection. […] The liganded beads were blocked with excess biotin and washed with blocking buffer (SeaBlock (Pierce), 1% BSA, 0.05% Tween 20, 1 mM DTT) to remove unbound ligand and to reduce non-specific binding. […] Test compounds were prepared as 111× stocks in 100% DMSO. Kds were determined using an 11-point 3-fold compound dilution series with three DMSO control points.
The compounds were then diluted directly into the assays such that the final concentration of DMSO was 0.9%. All reactions performed in polypropylene 384-well plate. Each was a final volume of 0.02 ml. […] The kinase concentration in the eluates was measured by qPCR. Binding constants (Kds) were calculated with a standard dose-response curve using the Hill equation: Response=Background+Signal−Background 1+(KdHill Slope/DoseHill Slope) The Hill Slope was set to −1. Curves were fitted using a non-linear least square fit with the Levenberg-Marquardt algorithm.

[12] = biological target: CDK4/cyclin D1 (Homo sapiens, UniProt P11802); experiment: CDK4/cyclin D1 NanoBret IC50; type: cell-based
Chain of CDK4/cyclin D1 (P11802 whole entry): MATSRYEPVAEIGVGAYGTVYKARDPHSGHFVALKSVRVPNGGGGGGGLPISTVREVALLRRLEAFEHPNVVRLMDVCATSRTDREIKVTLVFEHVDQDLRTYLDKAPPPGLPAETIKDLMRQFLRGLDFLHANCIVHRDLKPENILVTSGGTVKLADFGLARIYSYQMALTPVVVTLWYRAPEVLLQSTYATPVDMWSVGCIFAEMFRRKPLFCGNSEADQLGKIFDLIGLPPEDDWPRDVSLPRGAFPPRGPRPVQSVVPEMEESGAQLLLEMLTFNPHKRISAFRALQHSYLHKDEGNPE
Chain of CDK4/cyclin D1 (P24385 whole entry partner): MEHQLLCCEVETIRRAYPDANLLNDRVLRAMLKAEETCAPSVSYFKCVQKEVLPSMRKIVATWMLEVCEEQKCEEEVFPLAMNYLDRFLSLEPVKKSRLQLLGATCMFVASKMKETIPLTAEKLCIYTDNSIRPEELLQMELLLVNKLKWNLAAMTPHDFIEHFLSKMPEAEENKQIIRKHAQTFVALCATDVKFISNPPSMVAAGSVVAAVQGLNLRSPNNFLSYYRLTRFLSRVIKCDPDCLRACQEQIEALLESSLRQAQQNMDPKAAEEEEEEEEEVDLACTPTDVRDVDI

T4 sequence (P49840 whole entry): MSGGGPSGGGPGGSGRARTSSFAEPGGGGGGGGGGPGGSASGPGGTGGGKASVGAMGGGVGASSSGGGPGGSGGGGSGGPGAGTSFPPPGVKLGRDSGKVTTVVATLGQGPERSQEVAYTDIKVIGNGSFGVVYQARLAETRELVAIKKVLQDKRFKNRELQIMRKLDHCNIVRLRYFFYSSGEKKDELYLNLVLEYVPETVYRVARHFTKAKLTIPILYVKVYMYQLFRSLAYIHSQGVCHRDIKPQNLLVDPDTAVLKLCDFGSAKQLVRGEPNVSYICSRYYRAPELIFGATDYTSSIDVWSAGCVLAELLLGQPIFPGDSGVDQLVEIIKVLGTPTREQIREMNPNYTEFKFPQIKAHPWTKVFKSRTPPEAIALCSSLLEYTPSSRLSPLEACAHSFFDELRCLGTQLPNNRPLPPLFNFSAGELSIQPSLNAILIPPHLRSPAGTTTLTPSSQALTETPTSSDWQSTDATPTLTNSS
T2 sequence (Q9NSY1 whole entry): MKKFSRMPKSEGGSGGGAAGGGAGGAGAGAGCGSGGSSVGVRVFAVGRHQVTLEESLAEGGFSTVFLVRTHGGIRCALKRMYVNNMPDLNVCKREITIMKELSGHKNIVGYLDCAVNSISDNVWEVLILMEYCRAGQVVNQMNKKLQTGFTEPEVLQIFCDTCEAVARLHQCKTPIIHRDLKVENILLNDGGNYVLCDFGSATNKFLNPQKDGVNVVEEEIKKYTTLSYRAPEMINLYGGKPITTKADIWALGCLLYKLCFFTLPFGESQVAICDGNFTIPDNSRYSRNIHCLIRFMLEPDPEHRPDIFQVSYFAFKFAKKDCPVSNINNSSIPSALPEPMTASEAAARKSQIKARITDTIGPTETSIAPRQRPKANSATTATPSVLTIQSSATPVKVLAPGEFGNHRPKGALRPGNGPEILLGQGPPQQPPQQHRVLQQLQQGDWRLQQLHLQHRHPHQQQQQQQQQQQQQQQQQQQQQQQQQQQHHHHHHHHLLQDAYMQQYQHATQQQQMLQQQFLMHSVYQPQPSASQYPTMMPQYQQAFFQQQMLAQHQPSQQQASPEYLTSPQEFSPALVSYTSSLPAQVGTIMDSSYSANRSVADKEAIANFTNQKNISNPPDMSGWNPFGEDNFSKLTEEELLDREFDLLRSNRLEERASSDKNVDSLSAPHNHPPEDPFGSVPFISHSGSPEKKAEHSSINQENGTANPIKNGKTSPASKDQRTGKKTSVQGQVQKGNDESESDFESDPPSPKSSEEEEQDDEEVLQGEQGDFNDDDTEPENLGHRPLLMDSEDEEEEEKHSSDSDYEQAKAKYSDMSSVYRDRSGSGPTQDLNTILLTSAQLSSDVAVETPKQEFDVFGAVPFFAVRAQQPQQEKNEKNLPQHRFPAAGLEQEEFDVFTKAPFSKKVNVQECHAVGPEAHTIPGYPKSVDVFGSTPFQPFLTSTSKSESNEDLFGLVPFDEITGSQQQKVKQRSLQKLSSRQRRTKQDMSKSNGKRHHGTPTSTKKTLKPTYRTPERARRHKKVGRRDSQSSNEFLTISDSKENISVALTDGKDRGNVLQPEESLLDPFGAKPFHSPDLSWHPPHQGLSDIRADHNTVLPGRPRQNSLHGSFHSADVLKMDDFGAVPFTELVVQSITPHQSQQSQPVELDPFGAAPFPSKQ
T5 sequence (P49841 whole entry): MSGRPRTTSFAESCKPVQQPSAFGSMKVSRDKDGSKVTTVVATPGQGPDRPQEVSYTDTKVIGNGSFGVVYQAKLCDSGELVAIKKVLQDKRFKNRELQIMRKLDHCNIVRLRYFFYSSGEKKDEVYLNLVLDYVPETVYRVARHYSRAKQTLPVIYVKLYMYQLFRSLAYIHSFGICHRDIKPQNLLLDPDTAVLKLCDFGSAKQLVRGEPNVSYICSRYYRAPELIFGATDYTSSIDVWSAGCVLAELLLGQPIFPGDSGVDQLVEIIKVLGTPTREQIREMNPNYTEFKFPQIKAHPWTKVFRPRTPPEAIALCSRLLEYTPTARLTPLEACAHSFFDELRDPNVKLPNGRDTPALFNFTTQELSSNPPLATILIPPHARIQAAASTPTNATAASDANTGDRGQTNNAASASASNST
T1 sequence (Q2M2I8 whole entry): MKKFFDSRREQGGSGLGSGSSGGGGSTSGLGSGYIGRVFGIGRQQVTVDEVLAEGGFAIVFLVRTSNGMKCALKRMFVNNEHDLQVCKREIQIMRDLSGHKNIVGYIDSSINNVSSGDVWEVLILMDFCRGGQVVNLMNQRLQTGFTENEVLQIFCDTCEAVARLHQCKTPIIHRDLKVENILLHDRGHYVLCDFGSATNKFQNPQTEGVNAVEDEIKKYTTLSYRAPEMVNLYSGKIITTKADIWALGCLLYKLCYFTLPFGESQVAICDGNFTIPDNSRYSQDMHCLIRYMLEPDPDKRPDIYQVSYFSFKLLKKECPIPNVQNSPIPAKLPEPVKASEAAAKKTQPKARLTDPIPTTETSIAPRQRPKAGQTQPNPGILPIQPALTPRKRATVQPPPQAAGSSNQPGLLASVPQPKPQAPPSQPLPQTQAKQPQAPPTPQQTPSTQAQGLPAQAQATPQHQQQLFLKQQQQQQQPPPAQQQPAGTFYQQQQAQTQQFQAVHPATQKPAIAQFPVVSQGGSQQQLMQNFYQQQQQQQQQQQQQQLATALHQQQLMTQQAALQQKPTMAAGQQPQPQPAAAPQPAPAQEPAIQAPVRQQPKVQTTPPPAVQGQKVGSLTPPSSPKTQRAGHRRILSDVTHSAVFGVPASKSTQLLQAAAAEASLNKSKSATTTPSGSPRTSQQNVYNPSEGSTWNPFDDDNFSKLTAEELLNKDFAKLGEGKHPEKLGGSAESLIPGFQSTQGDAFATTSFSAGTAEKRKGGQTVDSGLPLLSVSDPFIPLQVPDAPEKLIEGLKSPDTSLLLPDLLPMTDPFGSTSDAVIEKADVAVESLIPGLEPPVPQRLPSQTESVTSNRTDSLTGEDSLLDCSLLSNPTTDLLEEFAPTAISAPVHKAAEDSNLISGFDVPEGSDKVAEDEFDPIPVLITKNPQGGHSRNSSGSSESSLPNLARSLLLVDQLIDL

CN1CCN(c2ccc(Nc3ncc4cc(C#N)c(=O)n(C5CCCC5)c4n3)cc2)CC1 [Compound 1, 8-cyclopentyl-2-((4-(4-methylpiperazin-1-yl)phenyl)amino)-7-oxo-7,8-dihydropyrido[2,3-d]pyrimidine-6-carbonitrile]
Group (CETSA-MS thermal shift) [1]: Stabilization
Group (CETSA-MS thermal shift) [2]: Stabilization
Group (CETSA-MS thermal shift) [3]: Destabilization
Group (CETSA-MS thermal shift) [4]: Stabilization
Group (CETSA-MS thermal shift) [5]: Stabilization
growth of cells [6]: significantly inhibited
Caspase 3 levels [7]: decreasing
β-galactosidase staining (senescence) [8]: increased β-galactosidase staining
time of peak CXCL10 mRNA levels [9]: ~48 h
CXCL10 mRNA levels ([9]; 24, 48 and 72 hours): large increase
B2M mRNA levels [10]: to a greater extent than Comparator 1 did
Kd [11]: 19 nM
IC50 [12]: 1 nM
